What was measured:
[1] = test system: Sicklepod, Cassia obtusifolia; assay: Postemergence herbicidal evaluation, CASOB; assay type: in vivo, L.
In short: (§1)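 Each compound, dispersed in a 1:1 acetone–water mixture bearing 0.5% TWEEN 20, was sprayed onto roughly two-week-old seedlings at about 0.0157–0.500 kg/ha. Visual 0–9 ratings against control were made 4–5 weeks post-treatment and averaged over repeat tests.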

[2] = test system: Velvetleaf, Abutilon theophrasti; assay: Preemergence herbicidal evaluation, ABUTH; assay type: in vivo, Medic.; settings: 0.2500 kg/ha
In short: (§2)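 Preemergence spray, aqueous acetone solution, ~0.0156–0.500 kg/ha, applied to freshly seeded soil cups. Greenhouse, 4–5 wk. Visual 0–9 rating vs untreated control (stand, vigor, malformation, size, chlorosis, overall appearance).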

[3] = test system: Velvetleaf, Abutilon theophrasti; assay: Postemergence herbicidal evaluation, ABUTH; assay type: in vivo, Medic.
In short: as §1

MOOVA Monochoria = assay: Preemergence weed control, flooded paddy (Table III); assay type: in vivo, Monochoria vaginalis; set-up: scale not given here
Description: (§3) Preemergence herbicidal activity under flooded paddy conditions is determined as follows: plant seeds or propagating organs are planted in the top 0.5 cm of silt loam soil in 32 oz. plastic containers with a diameter of 10.5 cm and no drainage holes. Water is added to these containers and maintained at 1.5 to 3 cm above the soil surface for the duration of the experiment. The test compounds are applied as aqueous/acetone mixtures 50/50 v/v pipetted directly into the flood water to give the equivalent of about 0.0313 to 0.500 kg/ha of active ingredient. The treated containers are placed on greenhouse benches and cared for in accordance with conventional greenhouse procedures. Three to four weeks after treatment, the test is terminated and each container is examined and herbicidal effect rated according to the rating system provided in Example 185. The compounds evaluated are reported by compound number given in Example 185.

[4] = test system: Morningglory Spp., Ipomoea Spp.; assay: Postemergence herbicidal evaluation, IPOSS; assay type: in vivo; settings: 0.2500 kg/ha
Description: (§4) In the tests, seedling plants are grown in jiffy flats for about two weeks. The test compounds are dispersed in 50/50 acetone/water mixtures containing 0.5% TWEEN®20, a polyoxyethylene sorbitan monolaurate surfactant of Atlas Chemical Industries, in sufficient quantities to provide the equivalent of about 0.0157 kg to 0.500 kg per hectare of active compound when applied to the plants through a spray nozzle operating at 40 psi for a predetermined time. After spraying, the plants are placed on greenhouse benches and are cared for in accordance with conventional greenhouse procedures. From four to five weeks after treatment, the seedling plants are examined and rated according to the rating system set forth below. Where more than one test is involved for a given compound, the data are averaged.
(§5) Results of herbicide evaluation are expressed on a rating scale (0-9). The scale is based upon a visual observation of plant stand, vigor, malformation, size, chlorosis and overall plant appearance as compared with a control.

[5] = test system: Rice, Tebonnet, Oryza sativa; assay: Preemergence herbicidal evaluation, ORYSAT; assay type: in vivo, (L.) Tebonnet; settings: 0.2500 kg/ha
In short: as §2

[6] = test system: Foxtail, Green, Setaria viridis; assay: Preemergence herbicidal evaluation, SETVI; assay type: in vivo, (L.) Beau; settings: 0.2500 kg/ha
In short: as §2

[7] = test system: Lambsquarters, Common, Chenopodium album; assay: Preemergence herbicidal evaluation, CHEAL; assay type: in vivo, L.; settings: 0.2500 kg/ha
From the text: as §5
(§6) The preemergence herbicidal activity of the test compounds of the present invention is exemplified by the following tests in which the seeds of a variety of monocotyledonous and dicotyledonous plants are separately mixed with potting soil and planted on top of approximately one inch of soil in separate pint cups. After planting, the cups are sprayed with the selected aqueous acetone solution containing test compound in sufficient quantity to provide the equivalent of about 0.0156 to 0.500 kg per hectare of test compound per cup. The treated cups are then placed on greenhouse benches, watered and cared for in accordance with conventional greenhouse procedures. From four to five weeks after treatment, the tests are terminated and each cup is examined and rated according to the rating system provided in Example 185.
(§7) The compounds evaluated are reported by compound number given in Example 185.

[8] = test system: ECHORC Watergrass (Calif.); assay: Preemergence weed control, flooded paddy (Table III); assay type: in vivo, Echinochloa oryzoides; set-up: scale not given here
Description: as §3

Soybean, Glycine max [9] = assay: Preemergence herbicidal evaluation, GLXMA; assay type: in vivo, (L.) Merr.; settings: 0.2500 kg/ha
From the text: as §5, §6, §7

[10] = test system: Ragweed, Common, Ambrosia artemisifolia; assay: Postemergence herbicidal evaluation, AMBEL; assay type: in vivo, L.
In short: as §1

[11] = test system: Morningglory Spp., Ipomoea Spp.; assay: Preemergence herbicidal evaluation, IPOSS; assay type: in vivo; settings: 0.2500 kg/ha
From the text: as §5, §6, §7

[12] = test system: Foxtail, Green, Setaria viridis; assay: Postemergence herbicidal evaluation, SETVI; assay type: in vivo, (L.) Beau
In short: as §1

[13] = test system: Lambsquarters, Common, Chenopodium album; assay: Postemergence herbicidal evaluation, CHEAL; assay type: in vivo, L.
In short: as §1

[14] = test system: Barnyardgrass, Echinochloa crus-galli; assay: Preemergence herbicidal evaluation, ECHCG; assay type: in vivo, (L.) Beau; settings: 0.2500 kg/ha
In short: as §2

Corn, Field, Zea mays [15] = assay: Preemergence herbicidal evaluation, ZEAMX; assay type: in vivo, L.; settings: 0.2500 kg/ha
In short: as §2

Galium, Galium aparine = assay: Preemergence herbicidal evaluation, GALAP; assay type: in vivo; settings: 0.2500 kg/ha
From the text: as §5, §6, §7

[16] = test system: Sicklepod, Cassia obtusifolia; assay: Preemergence herbicidal evaluation, CASOB; assay type: in vivo, L.; settings: 0.2500 kg/ha
In short: as §2

[17] = test system: SAGPY Arrowhead (Pygmaea); assay: Preemergence weed control, flooded paddy (Table III); assay type: in vivo, Sagittaria pygmaea; set-up: scale not given here
Description: as §3

Corn, Field, Zea mays [18] = assay: Postemergence herbicidal evaluation, ZEAMX; assay type: in vivo, L.
In short: as §1

Soybean, Glycine max [19] = assay: Postemergence herbicidal evaluation, GLXMA; assay type: in vivo, (L.) Merr.; settings: 0.2500 kg/ha
Description: as §4, §5

[20] = test system: Morningglory, Ivyleaf, Ipomoea hederacea; assay: Preemergence herbicidal evaluation, IPOHE; assay type: in vivo, (L.) Jacq.; settings: 0.2500 kg/ha
From the text: as §5, §6, §7

[21] = test system: Soybean, Williams, Glycine max; assay: Postemergence herbicidal evaluation, GLXMAW; assay type: in vivo, (L.) Merr. cv Williams
In short: as §1

[22] = test system: Soybean, Williams, Glycine max; assay: Preemergence herbicidal evaluation, GLXMAW; assay type: in vivo, (L.) Merr. cv Williams; settings: 0.2500 kg/ha
From the text: as §5, §6, §7

[23] = test system: Morningglory, Ivyleaf, Ipomoea hederacea; assay: Postemergence herbicidal evaluation, IPOHE; assay type: in vivo, (L.) Jacq.; settings: 0.0630 kg/ha
In short: as §1

## CCc1ccc(-c2nsc3ccc(-n4c(=O)cc(C(F)(F)F)n(C)c4=O)cc23)cc1 [Compound 5, 3-[3-(p-Ethylphenyl)-1,2-benzisothiazol-5-yl]-1-methyl-6-(trifluoromethyl)-2,4 (1H,3H)-pyrimidinedione]
[1]; 0.2500 kg/ha
  herbicide rating (0-9): 9.0
[2]
  herbicide rating (0-9): 9.0
[3]; 0.2500 kg/ha
  herbicide rating (0-9): 9.0
MOOVA Monochoria; 0.0313 kg/ha
  herbicidal effect rating: 9.0
MOOVA Monochoria; 0.0625 kg/ha
  herbicidal effect rating: 9.0
MOOVA Monochoria; 0.1250 kg/ha
  herbicidal effect rating: 9.0
MOOVA Monochoria; 0.2500 kg/ha
  herbicidal effect rating: 9.0
MOOVA Monochoria; 0.5000 kg/ha
  herbicidal effect rating: 9.0
[4]
  herbicide rating (0-9): 9.0
[5]
  herbicide rating (0-9): 7.0
[6]
  herbicide rating (0-9): 9.0
[7]
  herbicide rating (0-9): 9.0
[8]; 0.0313 kg/ha
  herbicidal effect rating: 9.0
[8]; 0.0625 kg/ha
  herbicidal effect rating: 9.0
[8]; 0.1250 kg/ha
  herbicidal effect rating: 9.0
[8]; 0.2500 kg/ha
  herbicidal effect rating: 9.0
[8]; 0.5000 kg/ha
  herbicidal effect rating: 9.0
Soybean, Glycine max [9]
  herbicide rating (0-9): 4.0
[10]; 0.2500 kg/ha
  herbicide rating (0-9): 9.0
[11]
  herbicide rating (0-9): 9.0
[12]; 0.2500 kg/ha
  herbicide rating (0-9): 9.0
[13]; 0.2500 kg/ha
  herbicide rating (0-9): 9.0
[14]
  herbicide rating (0-9): 9.0
Corn, Field, Zea mays [15]
  herbicide rating (0-9): 3.0
Galium, Galium aparine
  herbicide rating (0-9): 6.0
[16]
  herbicide rating (0-9): 9.0
[17]; 0.0313 kg/ha
  herbicidal effect rating: 0.0
[17]; 0.0625 kg/ha
  herbicidal effect rating: 0.0
[17]; 0.1250 kg/ha
  herbicidal effect rating: 2.0
[17]; 0.2500 kg/ha
  herbicidal effect rating: 7.0
[17]; 0.5000 kg/ha
  herbicidal effect rating: 7.0
Corn, Field, Zea mays [18]; 0.2500 kg/ha
  herbicide rating (0-9): 3.0
Soybean, Glycine max [19]
  herbicide rating (0-9): 7.0

## COc1ccc(C)cc1-c1nsc2ccc(-n3c(=O)cc(C(F)(F)F)n(C)c3=O)cc12 [Compound 1, 3-[3-(6-Methoxy-m-tolyl)-1,2-benzisothiazol-5-yl]-1-methyl-6-(trifluoromethyl)-2,4(1H,3H)-pyrimidinedione]
[1]; 0.0630 kg/ha
  herbicide rating (0-9): 9.0
[1]; 0.2500 kg/ha
  herbicide rating (0-9): 8.0
[2]
  herbicide rating (0-9): 9.0
[3]; 0.0630 kg/ha
  herbicide rating (0-9): 9.0
[3]; 0.2500 kg/ha
  herbicide rating (0-9): 9.0
MOOVA Monochoria; 0.0313 kg/ha
  herbicidal effect rating: 9.0
MOOVA Monochoria; 0.0625 kg/ha
  herbicidal effect rating: 9.0
MOOVA Monochoria; 0.1250 kg/ha
  herbicidal effect rating: 9.0
MOOVA Monochoria; 0.2500 kg/ha
  herbicidal effect rating: 9.0
MOOVA Monochoria; 0.5000 kg/ha
  herbicidal effect rating: 9.0
[4]
  herbicide rating (0-9): 9.0
[5]
  herbicide rating (0-9): 7.5
[20]
  herbicide rating (0-9): 8.0
[6]
  herbicide rating (0-9): 9.0
[7]
  herbicide rating (0-9): 9.0
[8]; 0.0313 kg/ha
  herbicidal effect rating: 9.0
[8]; 0.0625 kg/ha
  herbicidal effect rating: 9.0
[8]; 0.1250 kg/ha
  herbicidal effect rating: 9.0
[8]; 0.2500 kg/ha
  herbicidal effect rating: 9.0
[8]; 0.5000 kg/ha
  herbicidal effect rating: 9.0
[10]; 0.0630 kg/ha
  herbicide rating (0-9): 9.0
[10]; 0.2500 kg/ha
  herbicide rating (0-9): 9.0
[21]; 0.0630 kg/ha
  herbicide rating (0-9): 6.0
[21]; 0.2500 kg/ha
  herbicide rating (0-9): 7.0
[11]
  herbicide rating (0-9): 4.0
[12]; 0.0630 kg/ha
  herbicide rating (0-9): 9.0
[12]; 0.2500 kg/ha
  herbicide rating (0-9): 9.0
[13]; 0.0630 kg/ha
  herbicide rating (0-9): 9.0
[13]; 0.2500 kg/ha
  herbicide rating (0-9): 9.0
[14]
  herbicide rating (0-9): 9.0
Corn, Field, Zea mays [15]
  herbicide rating (0-9): 6.5
Galium, Galium aparine
  herbicide rating (0-9): 9.0
[22]
  herbicide rating (0-9): 7.5
[16]
  herbicide rating (0-9): 9.0
[17]; 0.0313 kg/ha
  herbicidal effect rating: 3.3
[17]; 0.0625 kg/ha
  herbicidal effect rating: 5.0
[17]; 0.1250 kg/ha
  herbicidal effect rating: 6.7
[17]; 0.2500 kg/ha
  herbicidal effect rating: 8.3
[17]; 0.5000 kg/ha
  herbicidal effect rating: 8.5
Corn, Field, Zea mays [18]; 0.0630 kg/ha
  herbicide rating (0-9): 6.0
Corn, Field, Zea mays [18]; 0.2500 kg/ha
  herbicide rating (0-9): 7.0
[23]
  herbicide rating (0-9): 9.0
Soybean, Glycine max [19]
  herbicide rating (0-9): 9.0
